Source: patent US20230181540A1, “COMPOSITIONS AND METHODS FOR ACTIVATING SIGNALING THROUGH THE CB2 CANNABINOID RECEPTOR FOR TREATING AND PREVENTING LYSOSOMAL STORAGE DISEASES AND DISORDERS” (Wylder Nation Foundation, priority 2020, published 2023)
Entries after “also recorded” stand apart in the source; their conditions may differ.

Columns and labels:
MCP-1 [1] = assay: MCP-1 expression in liver and plasma of Farber disease mice; format: in vivo, mouse; conditions: 5 mg/kg i.p. 3x a week for 6 weeks, vs untreated Farber mice
Method: (§1) Ten 2.5-week-old Farber disease mice were treated 3x a week by intraperitoneal injection of JWH133 at a dose of 5 mg/kg. After 6 weeks the 8.5-week-old mice were euthanized and their organs and plasma collected and processed for immunohistochemical analysis of MCP-1 expression. […] Thus, CB2 agonists, such as JWH133, can be used to treat Farber disease and other lysosomal storage disorders (* = p<0.01).

Farber mice = assay: Survival and body weight of Farber mice treated with CB2 agonist
Method: Two Farber mouse groups were studied (n=12 mice per group). […] In the control group they were injected with DMSO alone. Weight was monitored daily.

CB2 = assay: Immunohistochemical analysis of CB2 expression in organs of Farber disease mice; format: in vivo, mouse; conditions: 5 mg/kg i.p. 3x a week for 6 weeks, 8.5-week-old, vs untreated Farber mice
Method: Ten 2.5-week-old Farber disease mice were treated once weekly with recombinant acid ceramidase by intraperitoneal injection at a dose of 10 mg/kg. After 6 injections the 8.5-week-old mice were euthanized and their organs collected and processed for immunohistochemical analysis of CB2 expression. […] Thus, CB2 can be used as a biomarker to monitor the efficacy of treatment for Farber disease and other lysosomal storage disorders.
as §1, with “organs” for “organs and plasma”, “CB2” for “MCP-1”, “disorders.” for “disorders (* = p<0.01).”

MCP-1 [2] = assay: MCP-1 released into culture media by skin fibroblasts from a patient with MPS IIIA (ELISA); format: cell-based, human; conditions: 3.2 micromoles/ml, 72 or 96 hr, vs cultures without drug, p < 0.01
Method: Skin fibroblasts from a patient with MPS IIIA were grown to ~70% confluency and the CB2 agonists JHW133 and PM226 were added to the culture media for 72 or 96 hr at a dose of 3.2 micromoles/ml (black and gray bars, respectively). Control: cultures without drug added (white bars). […] Bar heights indicate the mean values from three independent experiments. Vertical lines indicate the standard error of the mean. * = p < 0.01 comparing with and without drug.

[3] = tested on: mouse model of Sanfilippo disease (mucopolysaccharidosis IIIA); conditions: cited from earlier work
[4] = tested on: mouse model of Niemann-Pick diseases type C1 (NPC1); conditions: cited from earlier work

Which “MCP-1 expression in the liver” value (MCP-1 [1]) does the source give for `CCCC(C)(C)c1ccc2c(c1)OC(C)(C)[C@@H]1CC=C(C)C[C@@H]21` [JWH133] here?
The value was “significantly reduced”.

What about the “MCP-1 expression in plasma” value (MCP-1 [1]; p<0.01) of the same compound?
Its value is “significantly reduced”.

And the “day of natural death in the treatment group” value (Farber mice; Farber mice, 5 mg/kg i.p. three times a week from 2 weeks of age)?
Its value is 47 days.

And the “survival / life span” value (Farber mice; Farber mice, 5 mg/kg i.p. three times a week in DMSO from 2 weeks of age, vs vehicle control (all dead by day 44))?
The value was “survived longer than vehicle control treated mice”.

And the body weight (Farber mice; Farber mice, 5 mg/kg i.p. three times a week, throughout the study, vs vehicle alone, 5 mg/kg)?
The body weight was “significantly greater; also recorded: significant prevention of weight loss”.

And the “number of mice that died naturally in the treatment group” value (Farber mice; of 12 Farber mice, 5 mg/kg i.p. three times a week, remaining 11 euthanized at day 58)?
Its value is 1.

What about the “CB2 expression (immunohistochemistry)” value (CB2) of the same compound?
The value was “significantly reduced”.

What about the “levels of MCP-1 released into the culture media” value (MCP-1 [2]) of the same compound?
The value was “able to reduce the levels of MCP-1 released into the culture media”.

Which “levels of MCP-1 released into the culture media” value (MCP-1 [2]) does the source give for `CCCCCCC(C)(C)c1cc(OC)c2c(c1)OC(C)(C)c1cnoc1-2` [PM226] here?
The value was “able to reduce the levels of MCP-1 released into the culture media”.

Which results are given for `CC(=O)Oc1ccccc1C(=O)O` [aspirin]?
expression of inflammation-related genes ([3]; chronic treatment for 6 months with high doses): normalize expression of some inflammation-related genes; treatment efficacy [4]: failed to show treatment efficacy

Which lifespan ([4]; high doses) does the source give for `CC(C)Cc1ccc(C(C)C(=O)O)cc1` (centres unmarked) [ibuprofen] here?
The lifespan was “prolong the lifespan of the mice by about two weeks”.

What about the “onset of clinical signs” value ([4]; high doses) of the same compound?
The value was “modestly slow the onset of clinical signs”.

Which CNS pathology ([3]; mouse model of MPS IIIA, attributed to systemic effects) does the source give for pentosan polysulfate [PPS] here?
The CNS pathology was “some improvements in CNS pathology were noted”.
